Test results from patent US11578069B2, “Compounds for inhibition of α4 β7 integrin” (Gilead Sciences, Inc., priority 2019, dated 2023).

What was measured:
[1] = target: T1, α4β1 integrin (Homo sapiens, UniProt P05556+P13612); experiment: α4β1 Cell Capture Assay; format: cell-based; details: capture of α4β1 expressing Jurkat cells on VCAM-1 extracellular domain-coated plate
T1 construct: monitoring the capture of α4β1 expressing cells; endogenous in cells; host or cells: Jurkat
Method: The potency of inhibitors in preventing α4β1 integrin interaction with VCAM-1 was measured by monitoring the capture of α4β1 expressing cells to a recombinant VCAM-1 extracellular domain-coated plate.
384-well plates (Corning 3702) were coated with VCAM-1 extracellular domain by dispensing 20 μL of VCAM-1 at 0.5 μg/ml per well and incubating overnight at 4° C. The plates were then washed with PBS and blocked with 3% BSA for 2 hours before being washed again.
(§1) Jurkat cells were spun down and re-suspended in assay medium (DMEM+0.5% FBS+0.5 mM MnCl2) at a density of 0.5×10^6 cells/ml. The cells were then dispensed (60 μL/well) to a 384-well plate (Greiner 781280) that was previously spotted with 60 nL of test compound per well. The plates were incubated at 37° C. for 1 hour. 50 μL of cells were transferred to the blocked, VCAM-1-coated plates and incubated for 30 minutes at 37° C. 10 μl of 12% glutaraldehyde containing Hoechst 33342 (0.06 mg/mL) was added to the cells (2% glutaraldehyde and 0.01 mg/ml Hoechst 33342 final concentrations). The plates were incubated for 90 minutes at room temperature. The plates were then washed 3 times with 70 μL of PBS per well and imaged on a Cellomics ArrayScan instrument. The cells that were bound to the plate were counted and plotted against the compound concentration to determine the EC50 of the test compounds.

[2] = target: T2, α4β7 integrin (Homo sapiens, UniProt P13612+P26010); experiment: α4β7 Integrin Cell Capture Assay; format: cell-based; details: capture of α4β7 integrin expressing RPM18866 cells on MadCAM-1 extracellular domain-coated plate
T2 construct: monitoring the capture of α4β7 integrin expressing cells; endogenous in cells; host or cells: RPMI8866
T2 sequence (P13612 34-1032): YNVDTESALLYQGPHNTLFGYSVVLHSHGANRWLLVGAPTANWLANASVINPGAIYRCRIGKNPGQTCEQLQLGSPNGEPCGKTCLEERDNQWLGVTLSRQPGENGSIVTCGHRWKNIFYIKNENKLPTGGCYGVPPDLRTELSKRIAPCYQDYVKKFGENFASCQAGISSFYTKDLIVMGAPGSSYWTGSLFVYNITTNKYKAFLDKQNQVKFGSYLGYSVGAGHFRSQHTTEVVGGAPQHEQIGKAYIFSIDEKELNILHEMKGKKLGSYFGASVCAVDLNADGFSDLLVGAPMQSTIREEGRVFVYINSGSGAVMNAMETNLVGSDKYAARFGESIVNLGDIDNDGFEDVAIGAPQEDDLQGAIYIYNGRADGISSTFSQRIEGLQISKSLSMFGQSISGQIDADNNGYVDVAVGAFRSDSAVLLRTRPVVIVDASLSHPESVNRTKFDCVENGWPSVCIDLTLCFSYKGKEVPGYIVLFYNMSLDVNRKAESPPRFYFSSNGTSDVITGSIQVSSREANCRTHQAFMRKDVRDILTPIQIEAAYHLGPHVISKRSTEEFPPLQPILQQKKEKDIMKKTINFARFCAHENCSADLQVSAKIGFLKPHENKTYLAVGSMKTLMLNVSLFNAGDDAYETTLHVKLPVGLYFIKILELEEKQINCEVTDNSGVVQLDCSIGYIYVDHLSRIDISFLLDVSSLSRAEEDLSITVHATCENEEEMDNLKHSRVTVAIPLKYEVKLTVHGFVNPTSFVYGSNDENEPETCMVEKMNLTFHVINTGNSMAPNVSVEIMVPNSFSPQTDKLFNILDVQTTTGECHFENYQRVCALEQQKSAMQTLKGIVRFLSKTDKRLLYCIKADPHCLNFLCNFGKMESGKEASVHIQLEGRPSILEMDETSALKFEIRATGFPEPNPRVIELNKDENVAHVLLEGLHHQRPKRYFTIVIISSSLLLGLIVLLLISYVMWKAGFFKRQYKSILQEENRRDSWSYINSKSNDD
T2 sequence (P26010 20-798): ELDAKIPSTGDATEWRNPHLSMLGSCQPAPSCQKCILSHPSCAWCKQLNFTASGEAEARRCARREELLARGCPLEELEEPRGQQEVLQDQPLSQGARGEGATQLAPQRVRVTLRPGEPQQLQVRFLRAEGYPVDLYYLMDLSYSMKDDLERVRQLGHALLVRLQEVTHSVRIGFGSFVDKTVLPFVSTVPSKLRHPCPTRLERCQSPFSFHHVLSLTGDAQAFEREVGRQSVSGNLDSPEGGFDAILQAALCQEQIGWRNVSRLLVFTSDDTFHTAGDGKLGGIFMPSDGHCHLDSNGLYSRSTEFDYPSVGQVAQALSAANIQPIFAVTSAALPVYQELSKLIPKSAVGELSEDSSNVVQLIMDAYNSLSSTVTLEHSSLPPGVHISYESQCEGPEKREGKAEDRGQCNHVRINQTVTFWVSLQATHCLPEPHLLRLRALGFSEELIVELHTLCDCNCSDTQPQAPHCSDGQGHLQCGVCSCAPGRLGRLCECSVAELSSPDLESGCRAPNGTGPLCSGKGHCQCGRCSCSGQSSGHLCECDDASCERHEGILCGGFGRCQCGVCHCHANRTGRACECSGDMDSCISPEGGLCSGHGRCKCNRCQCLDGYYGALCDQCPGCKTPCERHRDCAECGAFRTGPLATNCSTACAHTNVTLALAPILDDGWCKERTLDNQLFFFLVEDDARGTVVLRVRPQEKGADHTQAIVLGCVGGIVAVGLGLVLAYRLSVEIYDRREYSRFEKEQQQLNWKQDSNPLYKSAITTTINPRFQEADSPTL
Method: The potency of inhibitors in preventing α4β7 integrin interaction with MadCAM-1 was measured by monitoring the capture of α4β7 integrin expressing cells on a recombinant MadCAM-1 extracellular domain-coated plate.
384-well plates (Corning 3702) were coated with MadCAM-1 extracellular domain by dispensing 20 μL of MAdCAM-1 at 1.0 μg/mL per well and incubating overnight at 4° C. The plates were then washed with PBS and blocked with 3% BSA for 2 hours before being washed again.
as §1, with “RPM18866” for “Jurkat”, “cells/mL.” for “cells/ml.”, “MadCAM-1-coated” for “VCAM-1-coated”, “μL” for “μl”, “mg/mL” for “mg/ml Hoechst 33342”

T1 sequence (P05556 21-798, one chain of several): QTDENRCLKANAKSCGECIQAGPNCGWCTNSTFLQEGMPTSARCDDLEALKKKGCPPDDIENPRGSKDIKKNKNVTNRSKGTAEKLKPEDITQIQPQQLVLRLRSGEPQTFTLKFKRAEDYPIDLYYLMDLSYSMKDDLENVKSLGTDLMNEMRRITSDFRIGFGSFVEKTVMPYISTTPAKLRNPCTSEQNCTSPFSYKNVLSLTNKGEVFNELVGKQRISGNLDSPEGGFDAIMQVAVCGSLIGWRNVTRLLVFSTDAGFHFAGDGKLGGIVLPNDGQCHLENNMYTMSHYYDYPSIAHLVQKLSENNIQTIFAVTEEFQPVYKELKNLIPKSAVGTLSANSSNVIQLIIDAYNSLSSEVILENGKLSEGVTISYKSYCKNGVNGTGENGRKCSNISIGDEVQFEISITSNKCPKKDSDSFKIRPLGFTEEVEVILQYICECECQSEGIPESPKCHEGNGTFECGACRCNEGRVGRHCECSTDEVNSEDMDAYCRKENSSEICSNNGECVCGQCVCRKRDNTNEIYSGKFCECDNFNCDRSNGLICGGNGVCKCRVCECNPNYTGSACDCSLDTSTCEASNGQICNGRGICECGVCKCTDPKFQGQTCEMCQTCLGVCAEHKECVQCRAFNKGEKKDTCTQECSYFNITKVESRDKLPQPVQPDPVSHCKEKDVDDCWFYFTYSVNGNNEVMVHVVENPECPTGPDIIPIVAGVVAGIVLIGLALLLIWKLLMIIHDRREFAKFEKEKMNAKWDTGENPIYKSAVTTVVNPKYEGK

Row | EC50 ([1]; Table 2) [nM] | EC50 ([2]; Table 2) [nM] | EC50 ([1]; Table 1) [nM] | EC50 ([2]; Table 1) [nM] | Structure (SMILES)
1 | 27.3 | 1.2 | – | – | CN(C)c1ccc2c(c1)c(=O)n(-c1ccc(C[C@H](NC(=O)c3c(F)cc(N4CCOC[C@@H]4C(F)(F)F)cc3F)C(=O)O)cc1)c(=O)n2C [Example 36]
2 | – | – | 9.8 | 0.2 | Cc1cc(N2CCOC[C@@H]2C(F)(F)F)cc(F)c1C(=O)N[C@@H](Cc1ccc(-n2c(=O)c3ccncc3n(C)c2=O)cn1)C(=O)O [Example 23, (S)-2-(2-fluoro-6-methyl-4-((R)-3-(trifluoromethyl)morpholino)benzamido)-3-(5-(1-methyl-2,4-dioxo-1,4-dihydropyrido[3,4-d]pyrimidin-3(2H)-yl)pyridin-2-yl)propanoic acid]
3 | – | – | 2.4 | 3.9 | Cc1cc(N2CCOC[C@@H]2CC(F)F)cc(F)c1C(=O)N[C@@H](Cc1ccc(-n2c(=O)c3c(n(C)c2=O)COC3)cc1)C(=O)O [Example 70, (S)-2-(4-((S)-3-(2,2-difluoroethyl)morpholino)-2-fluoro-6-methylbenzamido)-3-(4-(1-methyl-2,4-dioxo-1,2,5,7-tetrahydrofuro[3,4-d]pyrimidin-3(4H)-yl)phenyl)propanoic acid]
4 | – | – | 3.4 | 0.1 | Cn1c(=O)n(-c2ccc(C[C@H](NC(=O)c3c(F)cc(N4CCOC[C@@H]4C(F)(F)F)cc3Cl)C(=O)O)cn2)c(=O)c2ccncc21 [Example 55, (S)-2-(2-chloro-6-fluoro-4-((R)-3-(trifluoromethyl)morpholino)benzamido)-3-(6-(1-methyl-2,4-dioxo-1,4-dihydropyrido[3,4-d]pyrimidin-3(2H)-yl)pyridin-3-yl)propanoic acid]
5 | 10.1 | 0.5 | – | – | COc1cc(C)n(C)c(=O)c1-c1ccc(C[C@H](NC(=O)c2c(F)cc(N3CCOC[C@@H]3C(F)(F)F)cc2F)C(=O)O)cc1 [Example 30]
6 | – | – | 8.6 | 0.1 | COc1cc(C[C@H](NC(=O)c2c(C)cc(N3CCOC[C@@H]3C(F)(F)F)cc2F)C(=O)O)ccc1-n1c(=O)c2ccncc2n(C)c1=O [Example 27, (S)-2-(2-fluoro-6-methyl-4-((R)-3-(trifluoromethyl)morpholino)benzamido)-3-(3-methoxy-4-(1-methyl-2,4-dioxo-1,4-dihydropyrido[3,4-d]pyrimidin-3(2H)-yl)phenyl)propanoic acid]
7 | – | – | 127 | 2 | CC[C@@H](N(c1cc(F)c(C(=O)N[C@@H](Cc2ccc(-n3c(=O)c4ccncc4n(C)c3=O)nc2)C(=O)O)c(F)c1)C1CC1)C(F)(F)F [Example 19, (S)-2-(4-(cyclopropyl((R)-1,1,1-trifluorobutan-2-yl)amino)-2,6-difluorobenzamido)-3-(6-(1-methyl-2,4-dioxo-1,4-dihydropyrido[3,4-d]pyrimidin-3(2H)-yl)pyridin-3-yl)propanoic acid]
8 | – | – | 63.7 | 1.2 | Cc1c(C(F)(F)F)cn(C)c(=O)c1-c1ccc(C[C@H](NC(=O)c2c(F)cc(N3CCOC[C@@H]3C(F)(F)F)cc2F)C(=O)O)cc1 [Example 4, (S)-2-(2,6-difluoro-4-((R)-3-(trifluoromethyl)morpholino)benzamido)-3-(4-(1,4-dimethyl-2-oxo-5-(trifluoromethyl)-1,2-dihydropyridin-3-yl)phenyl)propanoic acid]
9 | 9.8 | 0.4 | – | – | Cc1c(-c2ccc(C[C@H](NC(=O)c3c(F)cc(N4CCOC[C@@H]4C(F)(F)F)cc3F)C(=O)O)cc2)c(=O)n(C)c(=O)n1C [Example 37]
10 | – | – | 20.8 | 0.2 | Cc1cc(N2CCOC[C@@H]2CC(F)F)cc(F)c1C(=O)N[C@@H](Cc1ccc(-n2c(=O)c3ccncc3n(C)c2=O)nc1)C(=O)O [Example 69, (S)-2-(4-((S)-3-(2,2-difluoroethyl)morpholino)-2-fluoro-6-methylbenzamido)-3-(6-(1-methyl-2,4-dioxo-1,4-dihydropyrido[3,4-d]pyrimidin-3(2H)-yl)pyridin-3-yl)propanoic acid]
11 | 70.7 | 7.2 | – | – | CCOCc1cc(OC)c(-c2ccc(C[C@H](NC(=O)c3c(F)cc(N[C@H](c4ccccc4)C(F)(F)F)cc3F)C(=O)O)cc2)c(OC)c1 [Example 28]
12 | – | – | 1.8 | 0.1 | Cc1cc(N2CCOC[C@@H]2C(F)(F)F)cc(F)c1C(=O)N[C@@H](Cc1ccc(-n2c(=O)c3c(n(C)c2=O)CCC3)cc1)C(=O)O [Example 64, (S)-2-(2-fluoro-6-methyl-4-((R)-3-(trifluoromethyl)morpholino)benzamido)-3-(4-(1-methyl-2,4-dioxo-1,2,4,5,6,7-hexahydro-3H-cyclopenta[d]pyrimidin-3-yl)phenyl)propanoic acid]
13 | 46.1 | 4.2 | – | – | Cc1cc(N2CCOC[C@H]2CC(F)(F)F)cc(F)c1C(=O)N[C@@H](Cc1ccc(-n2c(=O)c3ccncc3n(C)c2=O)nc1)C(=O)O [Example 86]
14 | 61.4 | 3.2 | – | – | CC[C@@H](Nc1cc(F)c(C(=O)N[C@@H](Cc2ccc(-c3c(C)c4cc(F)ccc4n(C)c3=O)cc2)C(=O)O)c(F)c1)C(F)(F)F [Example 34]
